{"source": "ChEMBL document CHEMBL1150598", "about": "“Decipinin A and decipienolides A and B: new bioactive metabolites from the coprophilous fungus Podospora decipiens” (2002)", "key": {"[1]": {"tested_on": "Bacillus subtilis", "experiment": "Antimicrobial activity against Bacillus subtilis ATCC 6051 at 200 ug/disk after 4 days by standard disk assay", "assay_type": "functional", "conditions": "ATCC 6051, 96 h, read-out: IZ"}, "[2]": {"tested_on": "Ascobolus", "experiment": "Antimicrobial activity against Ascobolus furfuraceus NRRL 6460 after 4 days by standard disk assay", "assay_type": "functional, organism-based"}, "[3]": {"tested_on": "Candida albicans", "experiment": "Antimicrobial activity against Candida albicans ATCC 90029 after 4 days by standard disk assay", "assay_type": "functional, organism-based"}, "[4]": {"tested_on": "Sordaria fimicola", "experiment": "Antimicrobial activity against Sordaria fimicola NRRL 6459 after 4 days by standard disk assay", "assay_type": "functional, organism-based"}, "[5]": {"tested_on": "Fusarium verticillioides", "experiment": "Antimicrobial activity against Fusarium verticillioides ATCC 24378 at 250 ug/disk after 4 days by standard disk assay", "assay_type": "functional", "conditions": "ATCC 24378, 96 h, read-out: IZ"}}, "note": "Calls of active or inactive are those of the source. The rule behind the calls is not given here."}
{"molecule": "C=C1C(OC(=O)C(C)(C)C(C)O)CC2CC1C21CO[C@@]2(C[C@H](C)C(=O)O2)C1.C=C1C(OC(=O)C(C)(C)C(C)O)CC2CC1C21CO[C@]2(C[C@H](C)C(=O)O2)C1", "note": "(some centres undefined) [DECIPIENOLIDE A AND B]", "values": [{"measurement": "zone of inhibition at 200 µg/disc", "setting": "[1]", "value": 9, "unit": "mm"}, {"measurement": "Activity", "setting": "[2]", "value": "inactive"}, {"measurement": "Activity", "setting": "[3]", "value": "inactive"}, {"measurement": "Activity", "setting": "[4]", "value": "inactive"}]}
{"molecule": "CCC/C=C/C=C/C=C/C(=O)O[C@@H]1C2=CC(=O)C(C)(OC(C)=O)C(=O)C2=CO[C@]12O[C@H](C)CC[C@@H]2OC(=O)CCC(=O)O", "note": "(some centres undefined) [DECIPININ A]", "values": [{"measurement": "zone of inhibition at 200 µg/disc", "setting": "[1]", "value": 9, "unit": "mm"}, {"measurement": "Activity", "setting": "[2]", "value": "inactive"}, {"measurement": "Activity", "setting": "[3]", "value": "inactive"}, {"measurement": "Activity", "setting": "[4]", "value": "inactive"}, {"measurement": "zone of inhibition at 250 µg/disc", "setting": "[5]", "value": 22, "unit": "mm"}]}
